Patent US7579491B2, “Process for preparing brevifoliol” (Council of Scientific and Industrial Research, priority 2002, dated 2009)

Test system: different cancer cell lines
Assay: in vitro testing for anticancer activity
Format: cell-based
Protocol: The isolation of brevifoliol from leaves of the plant Taxus wallichiana is also reported in S. K. Chattopadhyay et al Indian J. Chemistry 35B, 175-177(1996) as part of studies on the isolation of anticancer compounds. The process of this disclosure involved extracting the dried and crushed needles of Taxus wallichiana with methanol for 72 hours and the extract was concentrated in vacuo. The concentrate was diluted with water and extracted with hexane and chloroform respectively. Concentration of the chloroform phase under vacuum left a residue which was separated by column chromatography over silica gel. Fraction eluted with chloroform-methanol (98:5) contained brevifoliol which was further purified by re-chromatography over silica gel and eluted with chloroform-methanol (99:2). Fractions containing brevifoliol were combined and concentrated and recrystallized from pet-ether and ethyl acetate mixture to get brevifoliol as needles. […] The detection of anticancer activity in brevifoliol prompted the present investigators to develop an efficient processing technology for isolation of the compound in large quantities from the needles of the plant for further biological testing.

`C=C1C2C[C@]3(C(C)(C)O)CC(O)C(C)=C3[C@@H](OC(=O)c3ccccc3)[C@H](OC(C)=O)[C@]2(C)[C@@H](OC(C)=O)C[C@@H]1O` (stereo partly shown) [brevifoliol] was tested. Which anticancer activity did it give?
Its anticancer activity is “significant anticancer activity”.
